Our source for the remaining activity values is PMC5564600 (Oncotarget, 2017).

SMILES strings stand for the structures. Where two headings read alike, the source gives them in different places.

Test in all cases: biochemical
Type in all cases: binding

The target in assay [1] is T1, panel of 442 kinases (Homo sapiens, UniProt O14936).
T1 construct: purchased Ambit Biosciences (scanMAXX KINOMEscan)
T1 sequence (O14936 1-926): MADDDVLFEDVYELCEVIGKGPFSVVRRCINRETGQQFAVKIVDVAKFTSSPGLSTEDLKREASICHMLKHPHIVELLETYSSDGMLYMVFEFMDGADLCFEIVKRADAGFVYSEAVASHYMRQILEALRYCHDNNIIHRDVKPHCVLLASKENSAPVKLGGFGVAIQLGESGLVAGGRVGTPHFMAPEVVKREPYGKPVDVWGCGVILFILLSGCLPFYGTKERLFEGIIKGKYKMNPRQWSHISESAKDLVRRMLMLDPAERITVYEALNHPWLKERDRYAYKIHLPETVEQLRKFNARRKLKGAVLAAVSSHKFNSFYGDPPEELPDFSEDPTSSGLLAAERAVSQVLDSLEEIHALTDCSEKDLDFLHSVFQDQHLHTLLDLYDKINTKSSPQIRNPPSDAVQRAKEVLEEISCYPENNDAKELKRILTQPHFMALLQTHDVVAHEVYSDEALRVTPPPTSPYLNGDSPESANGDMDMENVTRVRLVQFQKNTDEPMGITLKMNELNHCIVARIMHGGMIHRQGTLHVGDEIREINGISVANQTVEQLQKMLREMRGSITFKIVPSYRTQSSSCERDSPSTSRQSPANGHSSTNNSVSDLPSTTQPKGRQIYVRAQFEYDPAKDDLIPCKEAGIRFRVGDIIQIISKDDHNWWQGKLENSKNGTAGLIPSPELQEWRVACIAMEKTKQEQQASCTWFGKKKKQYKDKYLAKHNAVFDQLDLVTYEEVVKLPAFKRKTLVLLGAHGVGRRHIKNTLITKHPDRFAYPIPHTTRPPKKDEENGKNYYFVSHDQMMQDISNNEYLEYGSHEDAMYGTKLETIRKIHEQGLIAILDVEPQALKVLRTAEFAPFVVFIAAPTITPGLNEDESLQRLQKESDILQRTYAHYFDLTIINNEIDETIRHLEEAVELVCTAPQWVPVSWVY
As to conditions: CASK; for remaining activity at 1 µM: read-out: % of control at 1 µM.

Assay [2] addresses T2, panel of 442 kinases (Homo sapiens, UniProt Q13705).
T2 construct: purchased Ambit Biosciences (scanMAXX KINOMEscan)
As to conditions: ACVR2B; for remaining activity at 1 µM: read-out: % of control at 1 µM.

The target in assay [3] is T3, panel of 442 kinases (Homo sapiens, UniProt P00519, F317L).
T3 construct: purchased Ambit Biosciences (scanMAXX KINOMEscan)
As to conditions: for remaining activity at 1 µM: read-out: % of control at 1 µM; for remaining activity at 10 µM: read-out: % of control at 10 µM.

The target in assay [4] is T4, panel of 442 kinases (Homo sapiens, UniProt Q9NRP7).
T4 construct: purchased Ambit Biosciences (scanMAXX KINOMEscan)
T4 sequence (Q9NRP7 1-1315): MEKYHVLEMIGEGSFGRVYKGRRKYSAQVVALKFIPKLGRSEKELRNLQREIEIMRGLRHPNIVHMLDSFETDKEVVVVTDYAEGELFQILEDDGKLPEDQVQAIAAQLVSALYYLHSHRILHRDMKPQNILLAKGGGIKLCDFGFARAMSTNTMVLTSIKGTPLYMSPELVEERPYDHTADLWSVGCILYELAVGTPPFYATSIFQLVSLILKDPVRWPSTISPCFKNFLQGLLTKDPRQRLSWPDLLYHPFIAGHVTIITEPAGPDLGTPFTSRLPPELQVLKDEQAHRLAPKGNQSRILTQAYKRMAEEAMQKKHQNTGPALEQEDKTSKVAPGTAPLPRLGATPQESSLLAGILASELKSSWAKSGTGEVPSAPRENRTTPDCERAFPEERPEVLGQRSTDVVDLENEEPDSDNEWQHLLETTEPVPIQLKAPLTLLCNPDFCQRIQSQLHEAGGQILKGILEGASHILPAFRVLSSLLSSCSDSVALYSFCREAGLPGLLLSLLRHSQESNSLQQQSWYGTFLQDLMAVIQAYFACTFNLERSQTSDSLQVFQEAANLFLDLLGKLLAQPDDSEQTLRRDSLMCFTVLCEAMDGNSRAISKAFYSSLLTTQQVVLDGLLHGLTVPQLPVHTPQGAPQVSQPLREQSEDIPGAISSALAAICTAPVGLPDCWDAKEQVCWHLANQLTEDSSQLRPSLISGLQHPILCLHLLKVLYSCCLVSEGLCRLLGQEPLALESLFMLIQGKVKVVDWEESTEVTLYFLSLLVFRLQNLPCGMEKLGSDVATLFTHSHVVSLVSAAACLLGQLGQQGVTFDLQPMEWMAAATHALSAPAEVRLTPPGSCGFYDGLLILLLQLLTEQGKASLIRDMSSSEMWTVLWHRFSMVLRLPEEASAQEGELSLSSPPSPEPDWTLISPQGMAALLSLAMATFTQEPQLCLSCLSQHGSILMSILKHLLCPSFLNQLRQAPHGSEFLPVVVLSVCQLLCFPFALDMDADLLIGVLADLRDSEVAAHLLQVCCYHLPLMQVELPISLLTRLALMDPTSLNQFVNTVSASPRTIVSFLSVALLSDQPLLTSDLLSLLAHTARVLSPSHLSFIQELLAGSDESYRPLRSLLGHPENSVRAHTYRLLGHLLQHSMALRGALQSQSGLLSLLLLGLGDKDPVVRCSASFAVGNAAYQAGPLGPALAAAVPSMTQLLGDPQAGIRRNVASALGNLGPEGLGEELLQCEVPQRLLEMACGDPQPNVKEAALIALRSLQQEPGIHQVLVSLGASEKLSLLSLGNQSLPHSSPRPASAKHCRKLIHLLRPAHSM
As to conditions: kinase STK36; for remaining activity at 1 µM: read-out: STK36 (% of control at 1 µM).

The target of assay [5] is T5, panel of 442 kinases (Homo sapiens, UniProt Q9UQB9).
T5 construct: purchased Ambit Biosciences (scanMAXX KINOMEscan)
T5 sequence (Q9UQB9 1-309): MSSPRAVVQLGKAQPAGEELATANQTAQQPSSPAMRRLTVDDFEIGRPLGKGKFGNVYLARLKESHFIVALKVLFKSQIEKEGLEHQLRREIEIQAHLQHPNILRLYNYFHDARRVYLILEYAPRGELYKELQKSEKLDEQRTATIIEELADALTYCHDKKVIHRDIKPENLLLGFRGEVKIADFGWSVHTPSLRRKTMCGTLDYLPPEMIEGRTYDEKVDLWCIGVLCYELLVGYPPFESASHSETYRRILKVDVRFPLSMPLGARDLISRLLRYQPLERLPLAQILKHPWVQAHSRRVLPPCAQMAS
As to conditions: AURKC; for remaining activity at 1 µM: read-out: % of control at 1 µM.

The target of assay [6] is T6, panel of 442 kinases (Homo sapiens, UniProt P53355).
T6 construct: purchased Ambit Biosciences (scanMAXX KINOMEscan)
As to conditions: DAPK1; for remaining activity at 1 µM: read-out: % of control at 1 µM.

Setting [7] is: 10 µM, read-out: % of control at 10 µM.

T2 sequence (Q13705 19-512): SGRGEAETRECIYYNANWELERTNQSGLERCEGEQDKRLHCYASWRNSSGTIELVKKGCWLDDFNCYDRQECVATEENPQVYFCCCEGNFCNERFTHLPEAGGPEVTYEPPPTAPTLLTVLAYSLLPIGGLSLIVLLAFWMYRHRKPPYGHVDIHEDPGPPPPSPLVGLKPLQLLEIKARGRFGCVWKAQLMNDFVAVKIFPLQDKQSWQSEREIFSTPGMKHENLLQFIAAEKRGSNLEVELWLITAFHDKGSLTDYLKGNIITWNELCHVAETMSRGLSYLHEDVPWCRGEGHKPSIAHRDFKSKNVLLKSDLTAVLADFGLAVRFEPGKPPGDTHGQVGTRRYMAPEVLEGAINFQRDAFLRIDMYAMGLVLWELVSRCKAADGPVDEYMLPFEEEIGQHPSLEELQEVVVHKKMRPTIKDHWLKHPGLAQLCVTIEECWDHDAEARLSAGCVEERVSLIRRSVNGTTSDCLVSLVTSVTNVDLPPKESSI
T6 sequence (P53355 whole entry): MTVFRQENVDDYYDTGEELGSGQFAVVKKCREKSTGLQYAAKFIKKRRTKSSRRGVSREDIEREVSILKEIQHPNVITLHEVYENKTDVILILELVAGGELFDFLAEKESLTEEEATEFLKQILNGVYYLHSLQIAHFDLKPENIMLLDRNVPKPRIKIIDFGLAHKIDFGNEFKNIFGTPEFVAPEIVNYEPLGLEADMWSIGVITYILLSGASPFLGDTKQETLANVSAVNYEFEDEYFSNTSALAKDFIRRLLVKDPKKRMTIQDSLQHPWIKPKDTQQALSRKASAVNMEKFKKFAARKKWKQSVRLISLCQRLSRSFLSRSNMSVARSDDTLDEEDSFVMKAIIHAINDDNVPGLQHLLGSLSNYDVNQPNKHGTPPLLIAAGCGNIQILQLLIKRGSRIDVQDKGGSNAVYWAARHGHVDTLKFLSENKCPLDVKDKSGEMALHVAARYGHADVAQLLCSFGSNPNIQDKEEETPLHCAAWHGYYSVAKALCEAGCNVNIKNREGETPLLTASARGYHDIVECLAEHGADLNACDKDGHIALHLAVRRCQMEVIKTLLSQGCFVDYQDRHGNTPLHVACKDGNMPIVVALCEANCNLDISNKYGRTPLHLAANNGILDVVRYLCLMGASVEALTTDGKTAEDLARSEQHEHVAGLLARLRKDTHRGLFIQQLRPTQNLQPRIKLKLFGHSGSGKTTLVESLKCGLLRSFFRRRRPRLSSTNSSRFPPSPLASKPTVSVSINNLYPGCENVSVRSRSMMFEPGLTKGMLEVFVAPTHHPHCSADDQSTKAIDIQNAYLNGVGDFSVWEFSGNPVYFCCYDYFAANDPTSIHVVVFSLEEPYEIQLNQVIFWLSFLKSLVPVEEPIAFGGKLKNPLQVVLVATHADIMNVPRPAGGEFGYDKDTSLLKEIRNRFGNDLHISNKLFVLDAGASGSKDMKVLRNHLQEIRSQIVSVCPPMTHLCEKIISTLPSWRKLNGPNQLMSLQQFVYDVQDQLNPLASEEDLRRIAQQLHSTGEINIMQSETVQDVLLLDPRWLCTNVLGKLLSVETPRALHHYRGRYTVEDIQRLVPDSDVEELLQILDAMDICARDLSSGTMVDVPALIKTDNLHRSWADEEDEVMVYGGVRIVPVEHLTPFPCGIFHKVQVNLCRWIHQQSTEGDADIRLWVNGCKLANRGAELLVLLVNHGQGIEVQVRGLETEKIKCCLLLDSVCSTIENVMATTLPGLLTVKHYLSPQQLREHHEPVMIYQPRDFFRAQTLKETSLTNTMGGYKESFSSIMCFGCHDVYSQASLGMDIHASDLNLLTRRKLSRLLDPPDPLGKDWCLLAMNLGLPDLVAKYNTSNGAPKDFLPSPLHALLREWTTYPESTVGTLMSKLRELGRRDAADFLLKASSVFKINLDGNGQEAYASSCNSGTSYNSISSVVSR
T3 sequence (P00519 whole entry F317L): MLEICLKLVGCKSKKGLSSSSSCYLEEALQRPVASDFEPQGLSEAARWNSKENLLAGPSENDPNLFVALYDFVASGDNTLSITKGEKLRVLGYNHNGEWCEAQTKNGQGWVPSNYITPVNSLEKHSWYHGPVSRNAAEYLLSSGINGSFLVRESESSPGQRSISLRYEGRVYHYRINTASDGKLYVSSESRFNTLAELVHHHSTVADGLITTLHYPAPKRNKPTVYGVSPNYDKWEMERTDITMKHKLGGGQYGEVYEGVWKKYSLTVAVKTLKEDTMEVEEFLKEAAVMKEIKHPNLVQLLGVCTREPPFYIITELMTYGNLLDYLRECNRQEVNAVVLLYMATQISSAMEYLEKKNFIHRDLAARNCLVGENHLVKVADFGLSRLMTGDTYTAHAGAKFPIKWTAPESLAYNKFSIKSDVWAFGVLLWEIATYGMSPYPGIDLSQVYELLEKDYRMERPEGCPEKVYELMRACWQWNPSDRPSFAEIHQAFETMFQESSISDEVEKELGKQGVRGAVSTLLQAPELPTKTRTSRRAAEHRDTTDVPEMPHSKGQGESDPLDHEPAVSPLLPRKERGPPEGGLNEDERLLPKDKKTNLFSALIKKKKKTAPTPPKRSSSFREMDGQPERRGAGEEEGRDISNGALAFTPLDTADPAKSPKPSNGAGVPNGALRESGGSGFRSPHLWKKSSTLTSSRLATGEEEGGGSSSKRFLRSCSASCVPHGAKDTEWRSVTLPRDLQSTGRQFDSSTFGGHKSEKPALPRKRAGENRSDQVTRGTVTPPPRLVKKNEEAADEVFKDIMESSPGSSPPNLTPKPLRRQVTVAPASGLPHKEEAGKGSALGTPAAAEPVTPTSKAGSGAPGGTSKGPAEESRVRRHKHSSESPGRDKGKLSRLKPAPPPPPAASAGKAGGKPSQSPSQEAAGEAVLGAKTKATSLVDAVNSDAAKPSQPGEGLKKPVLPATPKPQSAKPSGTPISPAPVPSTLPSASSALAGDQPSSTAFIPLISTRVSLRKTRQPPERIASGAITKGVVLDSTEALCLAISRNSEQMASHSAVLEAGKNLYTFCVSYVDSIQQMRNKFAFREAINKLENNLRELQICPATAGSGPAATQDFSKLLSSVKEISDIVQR

In the case of `Nc1cc(C(F)(F)F)c(-c2cc(N3CCOCC3)nc(N3CCOCC3)n2)cn1` [Buparlisib], the remaining activity at 1 µM worked out at 99% on panel of 442 kinases [1]; 100% on panel of 442 kinases [2]; 100% on panel of 442 kinases [3] (ABL1(F317L)-nonphosphorylated); 100% at panel of 442 kinases [3] (ABL1(F317L)-phosphorylated); 100% on panel of 442 kinases [4]; 100% at panel of 442 kinases [5]. In addition, on panel of 442 kinases [6], the remaining activity at 1 µM came to 93%. Further, the remaining activity at 10 µM on panel of 442 kinases [1] (setting [7]) was 100%; on panel of 442 kinases [2] (setting [7]) it was 100%; on panel of 442 kinases [3] (ABL1(F317L)-nonphosphorylated), 100%; on panel of 442 kinases [3] (ABL1(F317L)-phosphorylated), 100%; on panel of 442 kinases [4] (10 µM, read-out: STK36 (% of control at 10 µM)), 100%; at panel of 442 kinases [5] (setting [7]), 91%. The remaining activity at 10 µM at panel of 442 kinases [6] (setting [7]) was 77%.
`Cn1c(=O)n(-c2ccc(C(C)(C)C#N)cc2)c2c3cc(-c4cnc5ccccc5c4)ccc3ncc21` [Dactolisib, 2-methyl-2-[4-(3-methyl-2-oxo-8-quinolin-3-yl-2,3-dihydroimidazo[4,5-c]quinolin-1-yl)-phenyl] propionitrile]: the remaining activity at 1 µM on panel of 442 kinases [1] is 100%; at panel of 442 kinases [2], 85%; at panel of 442 kinases [3] (ABL1(F317L)-nonphosphorylated) it was 100%; at panel of 442 kinases [3] (ABL1(F317L)-phosphorylated), 100%; on panel of 442 kinases [4] it was 89%; on panel of 442 kinases [5], 87%. On panel of 442 kinases [6], the remaining activity at 1 µM turned out to be 76%.
Take `COc1ncc(-c2ccc3nccc(-c4ccnnc4)c3c2)cc1NS(=O)(=O)c1ccc(F)cc1F` [Omipalisib]: the remaining activity at 1 µM on panel of 442 kinases [1] worked out at 75%; at panel of 442 kinases [2], 100%; at panel of 442 kinases [3] (ABL1(F317L)-nonphosphorylated), 87%; on panel of 442 kinases [3] (ABL1(F317L)-phosphorylated), 100%; on panel of 442 kinases [4], 85%; on panel of 442 kinases [5] it was 100%. Besides, the remaining activity at 1 µM at panel of 442 kinases [6] is 93%.
On to `FC(F)c1nc2ccccc2n1-c1nc(N2CCOCC2)nc(N2CCOCC2)n1` [ZSTK474, 2-(difluoromethyl)-1-[4,6-di(4-morpholinyl)-1,3,5-triazin-2-yl]-1H-benzimidazole], for which the remaining activity at 1 µM at panel of 442 kinases [1] was found to be 87%; on panel of 442 kinases [2], 89%; on panel of 442 kinases [3] (ABL1(F317L)-nonphosphorylated), 85%; at panel of 442 kinases [3] (ABL1(F317L)-phosphorylated) it was 100%; on panel of 442 kinases [4] it was 95%; at panel of 442 kinases [5] it was 96%. Besides, the remaining activity at 1 µM on panel of 442 kinases [6] was 86%.
